Test results taken from BindingDB's records for doi:10.1016/j.ejmech.2021.113481 (Harvard Medical School, 2021).

Molecular target: Cyclin-H/Cyclin-dependent kinase 7 (Homo sapiens, UniProt P51946+P50613)
Experiment: Inhibition of CDK7/Cyclin H (unknown origin)

Chain of Cyclin-H/Cyclin-dependent kinase 7 (P51946 whole entry): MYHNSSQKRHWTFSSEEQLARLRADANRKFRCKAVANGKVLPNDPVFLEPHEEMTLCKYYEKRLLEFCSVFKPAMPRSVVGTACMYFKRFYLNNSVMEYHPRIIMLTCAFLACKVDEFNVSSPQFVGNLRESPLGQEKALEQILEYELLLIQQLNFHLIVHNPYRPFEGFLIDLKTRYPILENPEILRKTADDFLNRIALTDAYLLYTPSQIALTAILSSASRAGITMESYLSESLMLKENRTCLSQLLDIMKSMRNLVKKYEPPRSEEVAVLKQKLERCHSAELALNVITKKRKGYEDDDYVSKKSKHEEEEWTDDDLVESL
Chain of Cyclin-H/Cyclin-dependent kinase 7 (P50613 whole entry): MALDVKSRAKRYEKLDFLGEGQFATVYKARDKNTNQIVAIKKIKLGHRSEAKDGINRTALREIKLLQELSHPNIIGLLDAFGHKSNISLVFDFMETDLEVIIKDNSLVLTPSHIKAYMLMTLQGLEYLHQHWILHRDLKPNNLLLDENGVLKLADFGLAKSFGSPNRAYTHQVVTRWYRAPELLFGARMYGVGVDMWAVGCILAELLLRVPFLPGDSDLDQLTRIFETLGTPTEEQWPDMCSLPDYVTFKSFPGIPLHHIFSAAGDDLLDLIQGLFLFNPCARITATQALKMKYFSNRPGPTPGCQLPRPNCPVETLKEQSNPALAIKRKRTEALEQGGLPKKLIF

Structure (SMILES)	IC50 [nM]
CN(C)C/C=C/C(=O)Nc1ccc(C(=O)N2CCC[C@@H](Nc3ncc(Cl)c(-c4c[nH]c5ccccc45)n3)C2)nc1	402
C=CC(=O)Nc1ccc(C(=O)N2CCC[C@@H](Nc3ncc(Cl)c(-c4c[nH]c5ccccc45)n3)C2)nc1	919
CN(C)C/C=C/C(=O)Nc1ccc(N2CCC[C@@H](Nc3ncc(Cl)c(-c4c[nH]c5ccccc45)n3)C2)nc1	74
CN(C)C/C=C/C(=O)Nc1ccc(O[C@@H]2CCC[C@@H](Nc3ncc(Cl)c(-c4c[nH]c5ccccc45)n3)C2)c(F)c1	269
